# Source: patent publication US20250326785A1, “SODIUM SALT AND ETHANOLAMINE SALT OF 23-HYDROXYTORMENTIC ACID” (HUYABIO International, LLC, priority 2024, published 2025)
# Legend:
# [1] = Solubility in water (temperature dependence); type: physicochemical
# Experimental: Sodium salt of Pattern 5 was prepared using inverse solubility, with dissolution of HBI-3808 free acid in water at low temperature, and heating to reach super saturation, followed by anti-solvent addition. The solids isolated from this process were consistent with sodium salt of pattern 15, which can be converted to sodium salt of pattern 5 via drying under vacuum with exposure to elevated humidity (and the conversion proceeds via sodium salt of pattern 2 as an intermediate).
# [2] = Varying temperature (VT)-XRPD; type: physicochemical; details: heating 25 to 250° C. (ethanolamine salt to 300° C.)
# Experimental: Varying temperature (VT)-XRPD was carried out between 25-250° C.
# VT-XRPD of HBI-3808 sodium salt of Pattern 5 was carried out between 25-250° C. (FIG. 5M). […] At 150° C., the diffractogram changed and was labelled as Pattern 7, indicating formation of HBI-3808 sodium salt of Pattern 7 (see Example 7). Diffractogram of Pattern 7, was observed between 150-250° C. Upon cooling to 25° C., Diffractogram of Pattern 5 was observed again, indicating reformation of HBI-3808 sodium salt of Pattern 5. Pattern 7 has some similarities with Pattern 6 (See Example 6). Both Patterns 6 and 7 may represent anhydrous forms of the HBI-3808 sodium salt. Starting concentration of the of HBI-3808 sodium salt of Pattern 5.
# VT-XRPD was carried out according to the temperature program of Table 17B. […] At 210° C., the XRPD diffractogram was consistent with poorly crystalline BBI-3808 free acid of Pattern 1. Free acid (HBI-3808) of Pattern 1 was observed between 210-240° C.
# VEGF = VEGF enrichment and angiogenesis induction by HBI-3808 conditioned media/supernatant; type: cell-based
# [3] = tested on: Adult rats (Sprague Dawley) with MI by LAD ligation; test: Rat myocardial infarction model: cardiac function by echocardiography; type: in vivo
# Excerpt: Animal Model and Myocardial Infarction: Adult rats (Sprague Dawley (SD), body weight, -250 g) were used to generate a model with MI by LAD ligation of the heart as described in the previous study (Chongyu Zhang, Meng-Hsuan Hsieh, Song-Yi Wu, Shu-Hong Li, Jun Wu, Shi-Ming Liu, Hao-Ji Wei, Richard D. Weisel, Hsing-Wen Sung, Ren-Ke Li, “A self-doping conductive polymer hydrogel that can restore electrical impulse propagation at myocardial infarct to prevent cardiac arrhythmia and preserve ventricular function,” Biomaterials, Volume 231, 2020, 119672, ISSN 0142-9612). In brief, each rat was pre-medicated with 5% isoflurane in a chamber.
# The heart was then exposed through a left anterolateral thoracotomy incision. […] Sham animals was treated identically except that the suture was passed through the myocardium beneath the LAD without ligation. The incision was then closed in layers using 3-0 Vicryl suture and 3-0 silk for the skin. Post-surgery treatment followed per UHN ARC requirement with antibiotics (Duplocillin LA, 15,000 IU/kg, I.M.) and analgesics (Buprenorphrine, 0.03 mg/Kg, SC), and the animals recovered from anesthesia in a warmed environment, under continuous monitoring and care for 1-2 hours.
# The selected rats having similar FS were randomly divided into 6 groups: (1) Negative control group (treated with 40% SBCD); (2) Positive control group (with HBI-3802, 2 mg/kg /day); (3) Dose 1 (HBI-3808 2 mg/kg/day); (4) Dose 2 (HBI-3808 0.64 mg/kg day); (5) Dose 3 (HBI-3808 0.2 mg/kg/day); and (6) Sham control (No myocardial infarction and treated with 40% SBCD).
# Treatments: The rats were treated by gastric gavage daily starting 6 days after MI for 2 weeks (Turner PV, Vaughn E, Sunohara-Neilson J, Ovari J, Leri F, “Oral gavage in rats: animal welfare evaluation,” J. Am. Assoc. Lab. Anim. Sci., 2012 Jan; 51(1): pp. 25-30. PMID: 22330864; PMCID: PMC3276962) as described in Table 18. The same volume of vehicle (1 mL/rat/day) was given to the rats in sham control group. Ten rats were studied in each group (N=10/group). The schematic plan is depicted in FIG. 35.
# Oral Treatment: Six days after permanent LAD ligation, the selected rats received the first daily treatment. HBI-3808 (at 1 of the 3 doses) or 3802 at 2 mg/kg/day (1 ml/rat/day) delivered by gastric gavage daily for 14 days (2). 40% SB-CD alone (1 ml/rat/day) was similarly administered to rats in the control and sham groups.
# Measurement of Cardiac Function: Cardiac function was evaluated by echocardiography prior to LAD ligation, prior to treatment (6 days post myocardial infarction), and at 7- and 21-days post first treatment (13 and 27 days post myocardial infarction). The end-point cardiac function was also evaluated using a pressure-volume catheter on Day 21 after first treatment (27 days post myocardial infarction).
# Echocardiography: Each rat was pre-medicated with isoflurane in a chamber, and anesthesia was maintained during measurement with 2.5% isoflurane delivered using a nose cone. Echocardiographic examinations were performed using a GE Vivid-7 System with a 10S transducer. Depth was set at 2 cm. Short-axis views were obtained using the parasternal approach.
# Left ventricular (LV) dimensions [end-diastolic dimension (LVEDD) and end-systolic dimension (LVESD)] from M mode at short axis views of the mid-level LV. Fractional shortening (% FS) was calculated using the equation: [(LVEDD−LVESD)/LVEDD]×100. Ejection fraction (% EF) was calculated using the equation: [(LVEDD^3−LVESD^3)/LVEDD^3]×100.
# [4] = 0.64 mg/kg/day, compared to 0.2 mg/kg HBI-3808, p<0.02
# [5] = 2 mg/kg/day, 21 days after treatment, p<0.01
compound,measurement,setting,value
"CC1CCC2(C(=O)[O-])CCC3(C)C(=CCC4C5(C)CC(O)C(O)C(C)(CO)C5CCC43C)C2C1(C)O.[Na+] (stereo not shown) [HBI-3808 sodium salt of Pattern 5, sodium salt of 23-hydroxytormentic acid]",solubility in water versus temperature,[1],inverse solubility in water
same,temperature range in which diffractograms consistent with the input salt were observed,[2],25-115 °C
"C[C@@H]1CC[C@]2(C(=O)O)CC[C@]3(C)C(=CCC4[C@@]5(C)C[C@@H](O)[C@H](O)[C@@](C)(CO)C5CC[C@]43C)C2[C@]1(C)O (stereo partly shown) [HBI-3808, 23-hydroxytormentic acid]",VEGF in media harvested from treated CMs,VEGF,enriched in VEGF
same,angiogenesis in supernatant of CM cell suspensions,VEGF,induces angiogenesis
same,difference of cardiac function (EF) Days 27 vs 6 post infarction,[3]; 0.16 mg of HBI-3808,showed improvement in cardiac function compared with Day 6
same,difference of cardiac function (EF) Days 27 vs 6 post infarction,[3]; 0.2 mg/kg/day,prevented further deterioration of cardiac dysfunction
same,Left ventricular end systolic dimension (LVESD),"[3]; 0.2 mg/kg/day, vs control at 21 days after treatment, p<0.01",smaller LVESD compared with control group
same,Ejection fraction (EF) / cardiac function,"[3]; 0.2 mg/kg/day, vs control over 21 days, p<0.01",better cardiac function than the control group
same,Fractional shortening (FS) / cardiac function,"[3]; 0.2 mg/kg/day, vs control, p<0.01",better function compared with the control group
same,systolic dilation between Day 6 and Day 21,[3]; 0.64 mg/kg/day,reversal in systolic dilation
same,Ejection fraction (EF),[3]; [4],improved EF
same,Fractional shortening (FS) / cardiac function,[3]; [4],improved cardiac function
same,diastolic dilation between Day 6 and 21,[3]; 2 mg/kg/day,no diastolic dilation
same,difference of cardiac function (EF) Days 27 vs 6 post infarction,[3]; 2 mg/kg/day,"improvement in cardiac function compared with Day 6, which was significantly illustrated"
same,efficacy compared with HBI-3802,[3]; 2 mg/kg/day,greater efficacy compared with HBI-3802
same,systolic dilation between Day 6 and Day 21,[3]; 2 mg/kg/day,reversal in systolic dilation
same,Ejection fraction (EF) after treatment,"[3]; 2 mg/kg/day gastric gavage 14 days from day 6 post MI, vs 0.64 and 0.2 mg/kg HBI-3808 and control",increased significantly
same,cardiac function (conclusion),[3]; 2 mg/kg/day oral,improved both diastolic and systolic function
same,cardiac function (EF) compared with 2 mg/kg HBI-3802 group,[3]; [5],improvement in cardiac function
same,cardiac function (FS) compared with 2 mg/kg HBI-3802 group,[3]; [5],improvement in cardiac function
same,Left ventricular end systolic dimension (LVESD),"[3]; 2 mg/kg/day, vs 2 mg/kg HBI-3802, 0.64 and 0.2 mg/kg HBI-3808 and control, p<0.01",smaller
same,Left ventricular end diastolic dimension (LVEDD),"[3]; 2 mg/kg/day, vs 0.64, 0.2 mg/kg and control groups, p<0.01",smaller
same,Fractional shortening (FS),"[3]; 2 mg/kg/day, vs 0.64 and 0.2 mg/kg HBI-3808 and control",increased FS significantly
same,improvement of cardiac function (conclusion),[3]; 0.64 or 0.2 mg/kg/day,lower-magnitude improvement of cardiac function
same,dose response of cardiac function restoration,"[3]; 2, 0.64, 0.2 mg/kg/day",had a dose response
